According to patent US8940897B2, “1,3,4-oxadiazole and 1,3,4-thiadiazole β-lactamase inhibitors” (priority 2012, dated 2015):
Structures can show the parent of a compound that is named as a salt.

Columns and labels:
[1] = system: bacterial strains that express the class D cephalosporinase OXA-15; assay: Synergy MIC / standard BLI potentiation MIC assay, strains expressing OXA-15;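 further: more active means a lower MIC or sMIC than Avibactam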; type: cell-based, E. coli; details: in the presence of a β-lactam; comparator Avibactam (CCC)
Protocol: (§1) Unless otherwise indicated, the activity of the BLI compounds can be described by the MIC value obtained from a Synergy MIC assay or a BLI potentiation assay (e.g as described herein), both of which are run in the presence of a β-lactam.
(§2) The experimental protocol was performed according to Clinical and Laboratory Standards Institute (CLSI) guidelines with modifications as described below (CLSI guidelines can be derived from the CLSI document M07-A9 published in January 2012: “Methods for Dilution Antimicrobial Susceptibility Tests for Bacteria That Grow Aerobically; Approved Standard-Ninth Edition”).
(§3) To prepare for MIC testing, frozen glycerol stocks of clinical isolates (Klebsiella pneumoniae, Eschericia coli, Enterobacter spp, Citrobacter spp, or Pseudomonas aeruginosa) were used to streak for isolated colonies on rich, non-selective, tryptic soy agar containing 5% sheep's blood (TSAB). Frozen glycerol stocks of laboratory engineered, isogenic E. coli strains, which contain cloned β-lactamase expressing plasmids were used to streak for isolated colonies on rich, selective LB agar supplemented with 25 μg/mL tetracycline to maintain the plasmid. All strains were incubated at 37° C. for 18-24 hrs.
(§4) On the day of testing, primary cultures were started by scraping off 5-10 colonies from the TSAB plates containing clinical strains or the tetracycline supplemented LB plates containing engineered strains. The clinical strain material was suspended in ˜5 mL of cation adjusted Mueller Hinton Broth (CAMHB) in 14 mL culture tubes. The engineered strain material was suspended in CAMHB (supplemented with 25 μg/mL tetracycline) in 14 mL culture tubes. All strains were incubated at 37° C. with aeration (200 rpm) for ˜2 hrs until the optical density at 600 nm (OD600) was ≧0.1.
(§5) The two compound components of the assay were each diluted in CAMHB and added to the 96-well broth microdilution assay plates. 50 μL of the β-lactam was added to each well of the assay plate in 2-fold dilutions with final concentrations ranging from 128 to 0.13 μg/mL. 25 μL of the BLI compound was added to all wells in the broth microdilution plates at a final concentration of 4 μg/mL. Inoculum cultures were prepared by standardizing the primary cultures to OD600=0.1 and then adding 20 μL of the adjusted primary culture per 1 mL CAMHB for clinical strains or CAMHB (supplemented with tetracycline at 100 μg/mL) for engineered strains, so that the final inoculum density was ˜10^5 colony forming units per milliliter. Diluted inoculum cultures were used to inoculate 25 μl, per well in 96-well broth microdilution assay plates. The final volume of each well was 100 μL and contained a β-lactam at different concentrations, a BLIcompound at 4 μg/mL concentration, the bacterial culture at an OD600 of approximately 0.001 and when necessary tetracycline at 25 μg/mL.
(§6) Plates were incubated for 18-20 hours at 37° C. with aeration (200 rpm). Following incubation, growth was confirmed visually placing plates over a viewing apparatus (stand with a mirror underneath) and then OD600 was measured using a SpectraMax 340PC384 plate reader (Molecular Devices, Sunnyvale, Calif.). Growth was defined as turbidity that could be detected with the naked eye or achieving minimum OD600 of 0.1. MIC values were defined as the lowest concentration producing no visible turbidity.
(§7) The synergy MIC (sMIC) assay determines the concentration of the BLI required to potentiate the activity of a fixed concentration of a β-lactam antibiotic against β-lactamase producing bacterial strains. The experimental protocol was performed according to Clinical and Laboratory Standards Institute (CLSI) guidelines with modifications as described below (CLSI guidelines can be derived from the CLSI document M07-A9 published in January 2012: “Methods for Dilution Antimicrobial Susceptibility Tests for Bacteria That Grow Aerobically; Approved Standard-Ninth Edition”). […]

[2] = system: bacterial strains that express KPC β-lactamases; assay: Synergy MIC / standard BLI potentiation MIC assay, strains expressing KPC β-lactamases; type: cell-based; details: for at least one KPC strain and/or a better spectrum of activity against KPC strains than Avibactam; in the presence of a β-lactam
Protocol: as §1, §2, §3, §4, §5, §6, §7

Compound	activity against bacterial strains that express OXA-15 β-lactamase compared with Avibactam [1]	activity against bacterial strains that express KPC β-lactamase compared with Avibactam [2]
N[C@H]1C[C@H](c2nnc([C@@H]3CC[C@@H]4CN3C(=O)N4OS(=O)(=O)O)o2)C1 [Compound 727, (2S,5R)-2-(5-((1r,3S)-3-aminocyclobutyl)-1,3,4-oxadiazol-2-yl)-7-oxo-1,6-diazabicyclo[3.2.1]octan-6-yl hydrogen sulfate]	more active than Avibactam	more active than Avibactam
N[C@H]1C[C@@H](Cc2nnc([C@@H]3CC[C@@H]4CN3C(=O)N4OS(=O)(=O)O)o2)C1 [Compound 728, (2S,5R)-2-(5-(((1s,3R)-3-aminocyclobutyl)methyl)-1,3,4-oxadiazol-2-yl)-7-oxo-1,6-diazabicyclo[3.2.1]octan-6-yl hydrogen sulfate]	more active than Avibactam	more active than Avibactam
N[C@@H]1CC[C@H](c2nnc([C@@H]3CC[C@@H]4CN3C(=O)N4OS(=O)(=O)O)o2)C1 [Compound 729, (2S,5R)-2-(5-((1S,3R)-3-aminocyclopentyl)-1,3,4-oxadiazol-2-yl)-7-oxo-1,6-diazabicyclo[3.2.1]octan-6-yl hydrogen sulfate]	more active than Avibactam	more active than Avibactam
N=C(N)NCC(O)Cc1nnc([C@@H]2CC[C@@H]3CN2C(=O)N3OS(=O)(=O)O)o1 (stereo partly drawn) [Compound 730, (2S,5R)-2-(5-(3-guanidino-2-hydroxypropyl)-1,3,4-oxadiazol-2-yl)-7-oxo-1,6-diazabicyclo[3.2.1]octan-6-yl hydrogen sulfate]	more active than Avibactam	more active than Avibactam
N=C(N)NC[C@@H](O)c1nnc([C@@H]2CC[C@@H]3CN2C(=O)N3OS(=O)(=O)O)o1 [Compound 731, (2S,5R)-2-(5-((R)-2-guanidino-1-hydroxyethyl)-1,3,4-oxadiazol-2-yl)-7-oxo-1,6-diazabicyclo[3.2.1]octan-6-yl hydrogen sulfate]	more active than Avibactam	more active than Avibactam
N=C(N)NC[C@H](O)c1nnc([C@@H]2CC[C@@H]3CN2C(=O)N3OS(=O)(=O)O)o1 [Compound 732, (2S,5R)-2-(5-((S)-2-guanidino-1-hydroxyethyl)-1,3,4-oxadiazol-2-yl)-7-oxo-1,6-diazabicyclo[3.2.1]octan-6-yl hydrogen sulfate]	more active than Avibactam	more active than Avibactam
CNCCCc1nnc([C@@H]2CC[C@@H]3CN2C(=O)N3OS(=O)(=O)O)o1 [Compound 734, (2S,5R)-2-(5-(3-(methylamino)propyl)-1,3,4-oxadiazol-2-yl)-7-oxo-1,6-diazabicyclo[3.2.1]octan-6-yl hydrogen sulfate]	more active than Avibactam	more active than Avibactam
NCCCCc1nnc([C@@H]2CC[C@@H]3CN2C(=O)N3OS(=O)(=O)O)o1 [Compound 735, (2S,5R)-2-(5-(4-aminobutyl)-1,3,4-oxadiazol-2-yl)-7-oxo-1,6-diazabicyclo[3.2.1]octan-6-yl hydrogen sulfate]	more active than Avibactam	more active than Avibactam
O=C1N2C[C@@H](CC[C@H]2c2nnc(CCNCCO)o2)N1OS(=O)(=O)O [Compound 736, (2S,5R)-2-(5-(2-((2-hydroxyethyl)amino)ethyl)-1,3,4-oxadiazol-2-yl)-7-oxo-1,6-diazabicyclo[3.2.1]octan-6-yl hydrogen sulfate]	more active than Avibactam	more active than Avibactam
CC(C)(N)Cc1nnc([C@@H]2CC[C@@H]3CN2C(=O)N3OS(=O)(=O)O)o1 [Compound 737, (2S,5R)-2-(5-(2-amino-2-methylpropyl)-1,3,4-oxadiazol-2-yl)-7-oxo-1,6-diazabicyclo[3.2.1]octan-6-yl hydrogen sulfate]	more active than Avibactam	more active than Avibactam
N=C(N)Nc1nnc([C@@H]2CC[C@@H]3CN2C(=O)N3OS(=O)(=O)O)o1 [Compound 738, (2S,5R)-2-(5-guanidino-1,3,4-oxadiazol-2-yl)-7-oxo-1,6-diazabicyclo[3.2.1]octan-6-yl hydrogen sulfate]	more active than Avibactam	more active than Avibactam
N=C(N)NC1(Cc2nnc([C@@H]3CC[C@@H]4CN3C(=O)N4OS(=O)(=O)O)o2)CC1 [Compound 739, (2S,5R)-2-(5-((1-guanidinocyclopropyl)methyl)-1,3,4-oxadiazol-2-yl)-7-oxo-1,6-diazabicyclo[3.2.1]octan-6-yl hydrogen sulfate]	more active than Avibactam	more active than Avibactam
O=C1N2C[C@@H](CC[C@H]2c2nnc([C@H]3[C@@H]4CNC[C@@H]43)o2)N1OS(=O)(=O)O [Compound 740, (2S,5R)-2-(5-(3-azabicyclo[3.1.0]hexan-6-yl)-1,3,4-oxadiazol-2-yl)-7-oxo-1,6-diazabicyclo[3.2.1]octan-6-yl hydrogen sulfate]	more active than Avibactam	more active than Avibactam
N=C(N)N1CC(Cc2nnc([C@@H]3CC[C@@H]4CN3C(=O)N4OS(=O)(=O)O)o2)C1 [Compound 741, (2S,5R)-2-(5-((1-carbamimidoylazetidin-3-yl)methyl)-1,3,4-oxadiazol-2-yl)-7-oxo-1,6-diazabicyclo[3.2.1]octan-6-yl hydrogen sulfate]	more active than Avibactam	more active than Avibactam
O=C1N2C[C@@H](CC[C@H]2c2nnc(CCC3CNC3)o2)N1OS(=O)(=O)O [Compound 742, (2S,5R)-2-(5-(2-(azetidin-3-yl)ethyl)-1,3,4-oxadiazol-2-yl)-7-oxo-1,6-diazabicyclo[3.2.1]octan-6-yl hydrogen sulfate]	more active than Avibactam	more active than Avibactam
